Experimental findings from US20100113276A1, “USE OF N2-PHENYLAMIDINES AS HERBICIDES” (BAYER CROPSCIENCE AG, priority 2007, published 2010) are described below.

The series is described as follows: log P by HPLC on reversed-phase column (C18), EEC Directive 79/831 Annex V.A8. The settings on record: C18, 40° C.; for log p HCO2H: aqueous formic acid / acetonitrile; for log p H3PO4: 0.1% aqueous phosphoric acid / acetonitrile. It is filed as physicochemical. The method, then: The log P data were determined in accordance with the EEC Directive 79/831 Annex V.A8 by HPLC (High Performance Liquid Chromatography) on a reversed-phase column (C18) using the following methods: […]
Calibration was carried out with the help of unbranched alkan-2-ones (consisting of 3 to 13 or 16 carbon atoms) with known logP values (determination of the logP values via the retention times by means of linear interpolation between two subsequent alkanones).

The compound `Cc1cc(Oc2cc(Cl)cc(C(F)(F)F)c2)c(Cl)cc1N=CN1CCCC1` [compound 567] yielded a log p acidic of 2.66.

In the case of `CCN(C)C=Nc1cc(Cl)c(Oc2ccc(Cl)c(C(C)(C)C)c2)cc1C` [compound 388], the “log p HCO2H” value amounted to 3.02 and the log p neutral amounted to 6.70.

In turn, `CCN(C)C=Nc1cc(F)c(-c2ccc(OC(C)(C)C)cc2)cc1C` [compound 673] showed a log p acidic of 2.23.

On to `CCN(C)C=Nc1cc(C)c(Oc2cccc(-c3cccnc3Cl)c2)cc1C` [compound 130], for which the log p acidic came to 2.05 and the log p neutral is 4.53.

Turning to `CCN(C)C=Nc1cc(C)c(Oc2cccc(Oc3ccccc3)c2)cc1C` [compound 290], the log p acidic was determined as 2.51.

For `Cc1cc(Oc2cccc(C(C)(C)C)c2)c(C)cc1N=CN(C)C(C)C` [compound 440], the log p acidic was 2.96 and the “log p HCO2H” value is 2.72.

Turning to `CCC(C)N(C)C=Nc1cc(Cl)c(Oc2ccc(Cl)c(C(C)C)c2)cc1C` (stereo not drawn) [compound 573], the log p acidic came out at 2.90, the “log p HCO2H” value was found to be 2.90 and the log p neutral was determined as 7.14.

In turn, `CCN(C)C=Nc1cc(F)c(-c2ccc(Cl)c(C(F)(F)F)c2)cc1C` [compound 656] displayed a log p acidic of 2.37.

Regarding `Cc1cc(N=CN(C)C(C)C)c(Cl)cc1Oc1ccc(C(C)C)cc1` [compound 889], the “log p H3PO4” value turned out to be 2.87, the “log p HCO2H” value is given as 2.62 and the log p neutral is 5.91.

For the compound `CCN(C)C=Nc1cc(Cl)c(Oc2cc(C(C)(C)C)nn2C)cc1C` [compound 596], the log p acidic was 1.84, the “log p HCO2H” value worked out at 1.84 and the log p neutral was 4.41.

For the compound `CCN(C)C=Nc1cc(F)c(Oc2cccc(C(C)(C)C)c2)cc1F` [compound 830], the log p acidic is 2.4.

For the compound `CCN(C)C=Nc1cc(C)c(Oc2cccc(C(C)(CC)OC)c2)cc1C` (stereo not drawn) [compound 502], the log p acidic is listed as 2.30.

For the compound `Cc1cc(Oc2cc(F)cc(C(F)(F)F)c2)c(C)cc1N=CN1CCCCC1` [compound 373], the log p acidic amounted to 2.29.

With `Cc1cc(Oc2ncnc(Oc3ccc(Cl)cc3)c2F)c(Cl)cc1N=CN1CCCCC1` [compound 622], the “log p HCO2H” value came to 2.41.

As for `CC(C)N(C)C=Nc1cc(C(F)(F)F)c(Oc2ccc(Cl)c(C(F)(F)F)c2)cc1Cl` [compound 949], the “log p H3PO4” value is 2.82, the “log p HCO2H” value is reported as 3.08 and the log p neutral is on record as 6.

With `Cc1cc(Oc2ccc(Cl)c(C(C)(C)C)c2)c(Cl)cc1N=CN(C)C1CC1` [compound 577], the “log p HCO2H” value is 3.24 and the log p neutral is listed as 6.94.

Regarding `Cc1cc(Oc2cc(C(C)C)nn2C)c(Cl)cc1N=CN1CCCCC1C` (stereo not drawn) [compound 606], the log p acidic is on record as 1.79 and the log p neutral is reported as 4.75.

For `Cc1cc(N=CN(C)C)c(Cl)cc1Oc1ccc(Cl)c(C(F)(F)F)c1` [compound 892], the “log p H3PO4” value is listed as 2.35, the “log p HCO2H” value was 2.3 and the log p neutral was determined as 5.08.

`CCc1cc(Oc2cc(C)c(N=CN3CCCCC3)cc2Cl)ccc1Cl` [compound 587]: the “log p HCO2H” value is given as 2.74 and the log p neutral was determined as 6.73.

Take `Cc1cc(N=CN2CCCCC2)c(Cl)cc1Oc1ccc(C(C)(C)C)cc1` [compound 886]: the “log p H3PO4” value is on record as 3.01, the “log p HCO2H” value stood at 2.78 and the log p neutral came out at 6.49.

The compound `CCN(C)C=Nc1cc(OC)c(Oc2ccc(Cl)c(C(C)(C)C)c2)cc1C` [compound 733] displayed a log p acidic of 2.75.

With `CCN(C)C=Nc1cc(C)c(Oc2ccc(C(C)(C)C)cc2)cc1Cl` [compound 884], the “log p H3PO4” value turned out to be 2.87, the “log p HCO2H” value was found to be 2.69 and the log p neutral came out at 5.86.

As to `CCN(C)C=Nc1cc(Cl)c(Oc2cccc(C(C)(C)C)c2)cc1I` [compound 862], the log p acidic was 2.98.

For `CCN(C)C=Nc1cc(OC)c(-c2ccc(C)cc2)cc1OC` [compound 999], the log p acidic is 1.89.

The compound `CCCN(C)C=Nc1cc(Cl)c(Oc2ccc(Cl)c(C(C)(C)C)c2)cc1C` [compound 578] had a log p acidic of 3.06.

Regarding `CCN(C)C=Nc1cc(C)c(-c2ccc(C(C)(C)C)cc2)cc1C` [compound 446], the log p acidic was found to be 2.69 and the log p neutral is recorded as 6.30.

`CC(C)(C)c1cc(Oc2cc(Cl)c(N=CN3CCCCC3)cc2C(F)(F)F)ccc1Cl` [compound 946]: the “log p H3PO4” value is on record as 3.61, the “log p HCO2H” value was found to be 3.68 and the log p neutral came out at 7.1.

Regarding `CCN(C)C=Nc1cc(Cl)c(Oc2cccc(C(C)(C)C)c2)cc1Cl` [compound 806], the “log p H3PO4” value was 2.74, the “log p HCO2H” value is 2.79 and the log p neutral is reported as 5.91.

Take `Clc1cc(Oc2ccccc2)c(Cl)cc1N=CN1CCCCC1` [compound 804]: the “log p H3PO4” value was 2.03, the “log p HCO2H” value is listed as 2.12 and the log p neutral is given as 5.09.

In the case of `Cc1cc(N=CN2CCCCC2)c(Cl)cc1Oc1ccc(C(C)C)cc1` [compound 891], the “log p H3PO4” value came to 2.82, the “log p HCO2H” value amounted to 2.64 and the log p neutral is given as 6.21.

In turn, `Cc1cc(-c2cccc(C(C)C)c2)c(C(F)F)cc1N=CN1CCCCC1` [compound 799] registered a log p acidic of 2.6.

`CCN(C)C=Nc1cc(C)c(Oc2ccc(Cl)c(C(F)(F)F)c2)cc1C` [compound 34]: the log p acidic turned out to be 2.38.

Turning to `CCN(C)C=Nc1cc(F)c(-c2ccc(Cl)c(C(F)(F)F)c2)cc1F` [compound 854], the log p acidic turned out to be 2.22.

On to `CCN(C)C=Nc1cc(C)c(Oc2cccc(Oc3ccccc3)c2)cc1Cl` [compound 880], for which the “log p H3PO4” value stood at 2.63, the “log p HCO2H” value was determined as 2.47 and the log p neutral was found to be 5.44.

Take `CCN(C)C=Nc1cc(F)c(-c2ccc(C(C)(C)C)cc2)cc1C` [compound 669]: the log p acidic came out at 2.38.

As for `CCN(C)C=Nc1cc(Cl)c(Oc2cc(C(C)C)nn2C)cc1C` [compound 602], the log p acidic worked out at 1.65 and the log p neutral amounted to 4.04.

Take `CCN(C)C=Nc1cc(C)c(Oc2nc(C(C)(C)C)c(Cl)s2)cc1C` [compound 559]: the log p acidic is reported as 2.76.

As for `COc1cc(Oc2ccc(Cl)c(C(C)(C)C)c2)c(OC)cc1N=CN(C)C` [compound 981], the “log p HCO2H” value was determined as 3.11 and the log p neutral amounted to 7.36.

Take `Cc1cc(-c2ccc(C(C)(C)C)cc2)c(C)cc1N=CN(C)C` [compound 445]: the log p acidic was determined as 2.71 and the log p neutral is given as 5.74.

In the case of `CCN(C)C=Nc1cc(Br)c(Oc2ccc(Cl)c(C(C)(C)C)c2)cc1C` [compound 697], the log p acidic turned out to be 2.67.

In turn, `CCN(C)C=Nc1cc(C)c(-c2ccc(Cl)c(C)c2)cc1C` [compound 398] had a log p acidic of 2.27 and a log p neutral of 5.59.

With `Cc1cc(N=CN2CCCCC2)c(Cl)cc1Oc1ccc(Cl)c(C(C)(C)C)c1` [compound 906], the “log p H3PO4” value is listed as 3.36, the “log p HCO2H” value is reported as 3.25 and the log p neutral amounted to 7.04.

On to `Cc1cc(-c2ccc(Cl)cc2C)c(C)cc1N=CN(C)C` [compound 393], for which the log p acidic is recorded as 2.24 and the log p neutral was determined as 5.62.

On to `Cc1cc(-c2ccc(Cl)cc2)c(F)cc1N=CN(C)C` [compound 663], for which the “log p H3PO4” value is listed as 2.04.

As for `CCCN(C)C=Nc1cc(Cl)c(Oc2ccc(Cl)c(CC)c2)cc1C` [compound 584], the “log p HCO2H” value is given as 2.84 and the log p neutral turned out to be 6.54.

For `Cc1cc(Oc2ccc(Cl)c(C(C)C)c2)c(C)cc1N=CN(C)C(C)C` [compound 401], the log p neutral stood at 7.36.

For `CCN(C)C=Nc1cc(Cl)c(Oc2ccccc2)cc1Cl` [compound 801], the “log p H3PO4” value was determined as 1.86, the “log p HCO2H” value was found to be 1.91 and the log p neutral was determined as 4.49.

As to `CCCN(C)C=Nc1cc(C)c(Oc2ccc(Br)c(C(C)C)c2)cc1C` [compound 356], the log p acidic is 2.93 and the log p neutral amounted to 7.01.

`CCN(C)C=Nc1cc(C(F)(F)F)c(-c2ccc(C(C)(C)C)cc2)cc1Cl` [compound 962] displayed a log p acidic of 2.74 and a log p neutral of 6.15.

In the case of `Cc1cc(N=CN(C)C(C)C)c(Cl)cc1Oc1cccc(C(C)(C)C)c1` [compound 871], the “log p H3PO4” value is recorded as 2.79, the “log p HCO2H” value is 2.54 and the log p neutral was 5.84.

For the compound `CCN(C)C=Nc1cc(C)c(CCc2ccccc2F)cc1C` [compound 345], the “log p HCO2H” value came out at 2.45.

On to `Cc1cc(N=CN(C)C(C)C)c(Cl)cc1Oc1ccc(Cl)c(C(C)C)c1` [compound 899], for which the “log p H3PO4” value was found to be 3.07, the “log p HCO2H” value is listed as 2.92 and the log p neutral was found to be 6.45.

Consider `Cc1cc(N=CN2CCCCC2)c(Cl)cc1Oc1cccc(Oc2ccccc2)c1` [compound 882], for which the “log p H3PO4” value was 2.82, the “log p HCO2H” value was 2.66 and the log p neutral turned out to be 6.03.

For `CCN(C)C=Nc1cc(Cl)c(Oc2cc(Cl)cc(C(F)(F)F)c2)cc1C` [compound 565], the log p acidic is 2.64.

Compound `CCN(C)C=Nc1cc(C)c(-c2ccc(Cl)c(C(F)(F)F)c2)cc1Cl` [compound 928] had a log p acidic of 2.3 and a log p neutral of 5.31.

In the case of `Cc1cc(Oc2ccc(C#N)c(C(F)(F)F)c2)c(C)cc1N=CN1CCCCC1` [compound 228], the log p acidic was 1.92, the “log p HCO2H” value is given as 2.14 and the log p neutral is given as 5.35.
